# Laboratory results published in ChEMBL document CHEMBL1130836, “Anti-AIDS agents. 31. Synthesis and anti-HIV activity of 4-substituted 3',4'-di-O-(-)-camphanoyl-(+)-cis-khellactone (DCK) thiolactone analogs” (Bioorg Med Chem Lett, 1998).
# How the values were obtained:
# [1] = Therapeutic index value was evaluated as the ratio of IC50/EC50; details: read-out: TI
# [2] = tested on: H9; experiment: Anti-HIV activity was evaluated as the concentration required to inhibit HIV-1 replication in H9 lymphocyte cells by 50%; assay type: functional, cell-based; details: Homo sapiens
# [3] = tested on: H9; experiment: Anti-HIV activity was evaluated as the concentration required to inhibit the growth of uninfected H9 lymphocyte cells by 50%; assay type: functional, cell-based; details: Homo sapiens
Compound,EC50 [2],selectivity ratio [1],IC50 [3]
CC1(C)Oc2ccc3ccc(=O)oc3c2[C@@H](OC(=O)C23CCC(C)(C(=O)O2)C3(C)C)[C@H]1OC(=O)C12CCC(C)(C(=O)O1)C2(C)C (stereo partly drawn),–,137000,–
CC1(C)Oc2ccc3c(-c4ccccc4)cc(=S)oc3c2[C@@H](OC(=O)C23CCC(C)(C(=O)O2)C3(C)C)[C@H]1OC(=O)C12CCC(C)(C(=O)O1)C2(C)C (stereo partly drawn),2.48 µM,> 56.6,> 140 µM
CC1(C)Oc2ccc3ccc(=S)oc3c2[C@@H](OC(=O)C23CCC(C)(C(=O)O2)C3(C)C)[C@H]1OC(=O)C12CCC(C)(C(=O)O1)C2(C)C (stereo partly drawn),0.029 µM,> 5390,> 156 µM

# Continued, in another order:
EC50 [2],Compound,selectivity ratio [1],IC50 [3]
0.00718 µM,Cc1cc(=S)oc2c3c(ccc12)OC(C)(C)[C@H](OC(=O)C12CCC(C)(C(=O)O1)C2(C)C)[C@@H]3OC(=O)C12CCC(C)(C(=O)O1)C2(C)C (stereo partly drawn),> 21300,> 153 µM
0.128 µM,CCCc1cc(=S)oc2c3c(ccc12)OC(C)(C)[C@H](OC(=O)C12CCC(C)(C(=O)O1)C2(C)C)[C@@H]3OC(=O)C12CCC(C)(C(=O)O1)C2(C)C (stereo partly drawn),> 1150,> 148 µM
